# Values of other authors as cited in paper PMC11187573, “Identification of SARS-CoV-2 Mpro inhibitors through deep reinforcement learning for de novo drug design and computational chemistry approaches” (RSC Medicinal Chemistry, 2024).
# Tested on: SARS, SARS-CoV-2 and MERS Mpro
# Details: Origin ChEMBL; ref ChEMBL; cited from earlier work
row,Structure (SMILES),IC50
1,"O=c1cc(-c2ccc(O)cc2)oc2cc(O)cc(O)c12 [CHEMBL28, Oc(cc1)ccc1C(Oc1c2c(O)cc(O)c1)=CC2=O]",3.02 µM
2,"CC(Cc1ccc(O)c(O)c1)C(C)Cc1ccc(O)c(O)c1 (centres unmarked) [CHEMBL52, CC(Cc(cc1)cc(O)c1O)C(C)Cc(cc1)cc(O)c1O]",2.59 µM
3,"Cc1c(OCC(F)(F)F)ccnc1C[S+]([O-])c1nc2ccccc2[nH]1 (centres unmarked) [CHEMBL480, Cc(c(C[S+](c1nc(cccc2)c2[nH]1)[O-])ncc1)c1OCC(F)(F)F]",0.995 µM
4,"O=c1cc(-c2ccccc2)oc2cc(O)c(O)c(O)c12 [CHEMBL8260, Oc(cc(c1c2O)OC(c3ccccc3)=CC1=O)c2O]",0.02 µM
5,"CNC(=O)ON(C(C)=O)C(=O)NC [CHEMBL9116, CC(N(C(NC)=O)OC(NC)=O)=O]",1.33 µM
6,"Cc1ccc(S(=O)(=O)N[C@@H](Cc2ccccc2)C(=O)CCl)cc1 [CHEMBL60718, Cc(cc1)ccc1S(N[C@@H](Cc1ccccc1)C(CCl)=O)(=O)=O]",1.37 µM
7,"O=c1c(O)cccc2cc(O)c(O)c(O)c12 [CHEMBL66953, Oc(cc(C=CC=C(C1=O)O)c1c1O)c1O]",4.58 µM
8,"Nc1nc(S)c2ncn(C3OC(CO)C(O)C3O)c2n1 (centres unmarked) [CHEMBL119171, Nc(nc1S)nc2c1ncn2C(C1O)OC(CO)C1O]",1.08 µM
9,"CN(C)C(=S)SSC(=S)N(C)C [CHEMBL120563, CN(C)C(SSC(N(C)C)=S)=S]",0.05 µM
10,O=C(O)CCCCCCCCCCCCCCc1ccc(I)cc1 [CHEMBL128251],2.25 µM
11,"C=CC(=O)c1ccc2ccccc2c1 [CHEMBL154580, C=CC(c1cc2ccccc2cc1)=O]",1.24 µM
12,"C[N+]1(C)CCC(OC(=O)C(c2ccccc2)c2ccccc2)CC1 [CHEMBL168067, C[N+](C)(CC1)CCC1OC(C(c1ccccc1)c1ccccc1)=O]",2.36 µM
13,"Cc1coc2c1C(=O)C(=O)c1c-2ccc2c1CCCC2(C)C [CHEMBL187266, CC(C)(CCC1)c(cc2)c1c(C1=O)c2-c(occ2C)c2C1=O]",1.6 µM
14,"O=C1C(=O)N(Cc2cc3ccccc3s2)c2ccc(F)cc21 [CHEMBL187598, O=C(c(cc(cc1)F)c1N1Cc2cc(cccc3)c3s2)C1=O]",4.82 µM
15,"O=C1C(=O)N(Cc2cc3ccccc3s2)c2c1cccc2[N+](=O)[O-] [CHEMBL187717, [O-][N+](c(cccc1C2=O)c1N(Cc1cc(cccc3)c3s1)C2=O)=O]",2 µM
16,"O=C1C(=O)N(Cc2cc3ccccc3s2)c2ccc(I)cc21 [CHEMBL190743, O=C(c(cc(cc1)I)c1N1Cc2cc(cccc3)c3s2)C1=O]",0.95 µM

row,Structure (SMILES),IC50
1,"O=C1C(Cl)=C(Cl)C(=O)C(Cl)=C1Cl [CHEMBL192627, O=C(C(Cl)=C(C1=O)Cl)C(Cl)=C1Cl]",0.02 µM
2,"O=C(CSc1nccc(-c2csc(-c3ccccc3)n2)n1)Nc1cc(Cl)cc(Cl)c1 [CHEMBL208732, O=C(CSc1nc(-c2csc(-c3ccccc3)n2)ccn1)Nc1cc(Cl)cc(Cl)c1]",3 µM
3,"O=C(Oc1ccc(S(=O)(=O)c2ccc(OC(=O)C(Cl)=C(Cl)Cl)cc2)cc1)C(Cl)=C(Cl)Cl [CHEMBL212454, O=C(C(Cl)=C(Cl)Cl)Oc(cc1)ccc1S(c(cc1)ccc1OC(C(Cl)=C(Cl)Cl)=O)(=O)=O]",0.9 µM
4,"Cc1cccc2c3c(ccc12)C1=C(C(=O)C3=O)[C@@H](C)CO1 [CHEMBL227075, C[C@@H]1C(C(C(c2c3ccc4c(C)cccc24)=O)=O)=C3OC1]",3.05 µM
5,"CC(C)(C)OC(=O)NCCc1nnc(S(=O)(=O)Cc2ccc(Cl)cc2Cl)o1 [CHEMBL259018, CC(C)(C)OC(NCCc(o1)nnc1S(Cc(ccc(Cl)c1)c1Cl)(=O)=O)=O]",4.22 µM
6,"CC(C)(C)c1ccc(S(=O)(=O)/C=C/C#N)cc1 [CHEMBL270299, CC(C)(C)c(cc1)ccc1S(/C=C/C#N)(=O)=O]",0.84 µM
7,"Sc1nnc(Nc2ccccc2)s1 [CHEMBL289356, Sc1nnc(Nc2ccccc2)s1]",0.39 µM
8,"O=C(/C=C/c1ccc(O)c(O)c1)O[C@H](Cc1ccc(O)c(O)c1)C(=O)O [CHEMBL324842, OC([C@@H](Cc(cc1)cc(O)c1O)OC(/C=C/c(cc1)cc(O)c1O)=O)=O]",3.86 µM
9,"C[n+]1c2cc(N)ccc2cc2ccc(N)cc21 [CHEMBL354349, C[n+](c1c2)c(cc(cc3)N)c3cc1ccc2N]",3.46 µM
10,"NC(=O)c1ccc2c(c1)C(=O)C(=O)N2Cc1ccc2ccccc2c1 [CHEMBL358279, NC(c(cc1)cc(C2=O)c1N(Cc1cc3ccccc3cc1)C2=O)=O]",0.245 µM
11,"Cc1coc2c1C(=O)C(=O)c1c-2ccc2c(C)cccc12 [CHEMBL363535, Cc1coc(-c(ccc2c(C)cccc22)c2C2=O)c1C2=O]",0.7 µM
12,"O=C1C(=O)N(Cc2cc3ccccc3s2)c2c(Br)cccc21 [CHEMBL365134, O=C(c1cccc(Br)c1N1Cc2cc(cccc3)c3s2)C1=O]",0.98 µM
13,"O=C1C(=O)N(Cc2ccc3ccccc3c2)c2ccc(I)cc21 [CHEMBL383725, O=C(c(cc(cc1)I)c1N1Cc2cc3ccccc3cc2)C1=O]",1.1 µM
14,"O=C1C2CC=CCC2C(=O)N1SC(Cl)(Cl)Cl (centres unmarked) [CHEMBL388676, O=C(C(CC=CC1)C1C1=O)N1SC(Cl)(Cl)Cl]",0.67 µM
15,"Cc1ccc(S(=O)(=O)/C=C/C#N)cc1 [CHEMBL403183, Cc(cc1)ccc1S(/C=C/C#N)(=O)=O]",0.82 µM
16,"Oc1ccc2ccccc2c1SSc1c(O)ccc2ccccc12 [CHEMBL472940, Oc(ccc1ccccc11)c1SSc(c1ccccc1cc1)c1O]",0.51 µM

# Tested on: Mpro
# Details: ML dataset, Origin COVID_Moonshot; ref COVID Moonshot; cited from earlier work
row,Structure (SMILES),IC50
1,Cc1ccncc1NC(=O)Cc1cc(Cl)cc(-c2ccc(C3CC3(F)F)cc2)c1 (centres unmarked) [MAT-POS-f42f3716-1],5.64 µM
2,CCc1cc(F)ccc1-c1cc(Cl)cc(CC(=O)Nc2cnccc2C)c1 [MAT-POS-f42f3716-4],28.8 µM
3,Cc1ccncc1NC(=O)Cc1cc(Cl)cc(-c2ccc(C3(C)CCO3)cc2)c1 (centres unmarked) [MAT-POS-f42f3716-5],12.1 µM
4,Cc1ccncc1NC(=O)Cc1cc(Cl)cc(-c2cnn(C)c2C(F)F)c1 [MAT-POS-f42f3716-7],17.6 µM
5,CC(C)(C)c1ccc(N(C(=O)c2cn[nH]c2)C(C(=O)NCCc2cccc(F)c2)c2cccnc2)cc1 (centres unmarked) [MAT-POS-f2460aef-5],5.33 µM
6,CN1C(=O)CC(O)(C(=O)Nc2cncc3ccccc23)c2cc(Cl)ccc21 (centres unmarked) [MAT-POS-f9802937-2],20.7 µM
7,CN(C)C(=O)C[C@]1(C(=O)Nc2cncc3ccccc23)CCOc2ccc(Cl)cc21 [MAT-POS-f9802937-3],1.3 µM
8,CN(C)C(=O)C[C@@]1(C(=O)Nc2cncc3ccccc23)CCOc2ccc(Cl)cc21 [MAT-POS-f9802937-4],20.5 µM
9,CCOc1c(Cl)cccc1CC(=O)Nc1cncc2ccccc12 [MAT-POS-fce787c2-1],6.96 µM
10,O=C(Cc1cc(Cl)cc(Cl)c1)Nc1cncc2ccccc12 [MAT-POS-fce787c2-2],1.37 µM
11,O=C(Nc1cncc2ccccc12)C(O)c1ccc(Cl)c(Cl)c1 (centres unmarked) [MAT-POS-fce787c2-4],2.01 µM
12,O=C(Nc1cncc2ccccc12)C(CO)c1ccc(Cl)c(Cl)c1 (centres unmarked) [MAT-POS-fce787c2-11],19.3 µM
13,O=C(Cc1cc(Cl)cc(Cc2ccn[nH]2)c1)Nc1cncc2ccccc12 [PET-UNK-372a2f82-1],7.22 µM
14,O=C(Cc1cncc2ccccc12)Nc1cccc(Cl)c1 [PET-UNK-8922bd3c-1],6.84 µM
15,O=C(Cc1cc(Cl)ccc1Cl)Nc1cncc2ccccc12 [PET-UNK-dd44aeb6-2],1.02 µM
16,O=C(Cc1cc(Cl)cc(-c2nnc[nH]2)c1)Nc1cncc2ccccc12 [RAL-THA-1d44ff04-8],5.3 µM
17,O=C(Cc1ccc(Cl)cc1)Nc1cncc2ccccc12 [RAL-THA-2d450e86-2],23.7 µM
18,Cc1ccc(CC(=O)Nc2cncc3ccccc23)cc1 [RAL-THA-2d450e86-3],58.4 µM
19,COc1ccc(CC(=O)Nc2cncc3ccccc23)cc1 [RAL-THA-2d450e86-4],72.5 µM
20,Cc1ccc(CC(=O)Nc2cncc3ccccc23)cc1Cl [RAL-THA-2d450e86-8],1.09 µM
21,O=C(Cc1ccc(Cl)c(F)c1)Nc1cncc2ccccc12 [RAL-THA-2d450e86-9],2.03 µM

row,Structure (SMILES),IC50
1,COc1cccc(CC(=O)Nc2cncc3ccccc23)c1 [RAL-THA-2d450e86-11],30.5 µM
2,O=C(Cc1cc(F)cc(Cl)c1)Nc1cncc2ccccc12 [RAL-THA-2d450e86-14],0.383 µM
3,O=C(Cc1cccc(Cl)c1F)Nc1cncc2ccccc12 [RAL-THA-2d450e86-19],23.6 µM
4,O=C(Cc1cccc(C(F)(F)F)c1)Nc1cncc2ccccc12 [RAL-THA-2d450e86-31],6.94 µM
5,O=C(Cc1ccc(C(F)(F)F)cc1)Nc1cncc2ccccc12 [RAL-THA-2d450e86-32],24.8 µM
6,O=C(Cc1ccncc1Cl)Nc1cncc2ccccc12 [RAL-THA-2d450e86-34],52.6 µM
7,Cc1ccccc1CC(=O)Nc1cncc2ccccc12 [RAL-THA-2d450e86-38],29.5 µM
8,COc1ccccc1CC(=O)Nc1cncc2ccccc12 [RAL-THA-2d450e86-39],35 µM
9,COCCN1CCC(C(=O)Nc2cncc3ccccc23)c2cc(Cl)ccc21 (centres unmarked) [RAL-THA-4aa06b95-7],0.564 µM
10,CNC(=O)c1cc(Cl)cc(CC(=O)Nc2cnccc2C)c1 [RAL-THA-6b94ceba-7],47.7 µM
11,Cc1ccncc1NC(=O)Cc1cc(Cl)cc(CNS(C)(=O)=O)c1 [RAL-THA-6b94ceba-12],24.4 µM
12,Cc1ccncc1NC(=O)Cc1cc(Cl)cc(S(N)(=O)=O)c1 [RAL-THA-6b94ceba-13],13.9 µM
13,O=C(Nc1cncc2ccccc12)C1CCN(Cc2ccccc2)c2ccc(Cl)cc21 (centres unmarked) [RAL-THA-8416115c-1],1.06 µM
14,O=C(Nc1cncc2ccccc12)C1CCN(Cc2ccn[nH]2)c2ccc(Cl)cc21 (centres unmarked) [RAL-THA-8416115c-6],0.803 µM
15,CN(C)C(=O)CN1CCC(C(=O)Nc2cncc3ccccc23)c2cc(Cl)ccc21 (centres unmarked) [RAL-THA-8416115c-9],2.54 µM
16,CNC(=O)Nc1ccc(N(Cc2ccsc2)C(=O)Cn2nnc3ccccc32)cc1 [ROB-IMP-e811baff-1],8.37 µM
17,Cc1ccncc1NC(=O)Cc1cc(C#N)cc(OC2CC(=O)N2)c1 (centres unmarked) [TRY-UNI-2eddb1ff-6],10.1 µM
18,O=C(Cc1ccc(Cl)c(Cl)c1)Nc1cncc2cnccc12 [VLA-UNK-82501c2c-1],1.85 µM
19,O=C(Cc1ccc(Cl)c(Cl)c1)Nc1cncc2ccncc12 [VLA-UNK-82501c2c-2],1.79 µM
20,N#Cc1cc(Cl)cc(NC(=O)Nc2cccnc2)c1 [WAR-XCH-eb7b662f-2],99 µM
21,Cc1ccncc1NC(=O)Cc1cc(Cl)cc(NS(C)(=O)=O)c1 [WIL-MOD-03b86a88-5],21.8 µM
